Data reported in PMC6017909, “Synthesis and Evaluation of the Tumor Cell Growth Inhibitory Potential of New Putative HSP90 Inhibitors” (Molecules : A Journal of Synthetic Chemistry and Natural …, 2018).

Assays:
A431 = experiment: Cell-counting assay, 72-h drug exposure; type: cell-based; conditions: Homo sapiens, A-431, read-out: Cell Growth Inhibitory Activity A431 IC50 72 h
Text: (§1) For the cytotoxic activity studies and determination of GI50 concentrations in three different tumor cell lines, the cell culture conditions are described in Section 3.5. For the studies on the effect on % viable cells, cell cycle, cellular proliferation, and apoptosis, culture conditions are described in Section 3.6.1. For the remaining studies, the epithelial carcinoma cell line A431 and the non-small cell lung carcinoma cell line NCI-H460 were routinely grown in RPMI 1640 (Lonza, Vierviers, Belgium), supplemented with 10% (v/v) heat-inactivated fetal bovine serum (FBS, GIBCO, Invitrogen, Paisley, UK). The human peritoneal mesothelioma cell line STO was kindly provided by Dr. N. Zaffaroni (IRCCS Istituto Nazionale Tumori, Milan, Italy) and grown in 50/50 DMEM-Ham’s F12 medium (Lonza, Vierviers, Belgium), supplemented with 10% (v/v) heat-inactivated foetal bovine serum and 2 mM L-glutamine (L-Gln). All cell lines were maintained at 37 °C in a 5%/95% CO2/air atmosphere. All the compounds tested were freshly prepared by dissolving powder in dimethylsulfoxide (DMSO) (BDH Prolabo, Milan, Italy) and following dilution in culture medium. Cells were incubated with drugs for 48 h or 72 h (unless otherwise stated) at 37 °C in culture medium supplemented with 10% (v/v) heat-inactivated FBS; drug concentrations used for each assay and duration of treatments are reported in Legends to Figures.
(§2) Cellular sensitivity to drugs was evaluated by a cell-counting assay after 72-h drug exposure. Cells in the logarithmic phase of growth were seeded in duplicate into 6-well plates. Twenty-four hours after seeding, the drug was added to the medium. Cells were harvested 72 h after drug exposure and counted with a cell counter.

STO = experiment: Cell-counting assay, 72-h drug exposure; type: cell-based; conditions: Homo sapiens, read-out: Cell Growth Inhibitory Activity STO IC50 72 h
Text: as §1, §2

[1] = Viable cell number, trypan blue exclusion assay; type: cell-based; conditions: human, NCI-H460 cells, read-out: Number of viable cells (in relation to Blank cells)
Method: NCI-H460 cells were plated in 6-well plates (1 × 10^5 cells/well) in RPMI-1640 medium with UltraGlutamine I and 25 mM Hepes (Lonza) supplemented with 10% FBS (PAA) at 37 °C in a humidified incubator with 5% CO2 for 24 h. […] These concentrations corresponded respectively to 5.2 μM and 7.8 μM for compound 5 and to 3.2 μM and 4.8 μM for compound 8. Cells were also incubated with medium only (Blank) or with the vehicle (solvent, H2O), corresponding to the highest concentration used when testing the compounds. Following treatment with the compounds, cells were further processed as follows.
Cell number and % viable cells was determined with the Trypan blue exclusion assay.

NCI-H460 [2] = experiment: Apoptosis, Annexin V-FITC/PI flow cytometry; type: cell-based, human; conditions: for % Apoptosis: 48 h, sum of early and late apoptosis; for Induction of apoptosis at cytotoxic concentrations: GI50 and 1.5× GI50, 48 h, Annexin V and propidium iodide
Method: NCI-H460 cells were plated in 6-well plates (1 × 10^5 cells/well) in RPMI-1640 medium with UltraGlutamine I and 25 mM Hepes (Lonza) supplemented with 10% FBS (PAA) at 37 °C in a humidified incubator with 5% CO2 for 24 h. […] These concentrations corresponded respectively to 5.2 μM and 7.8 μM for compound 5 and to 3.2 μM and 4.8 μM for compound 8. Cells were also incubated with medium only (Blank) or with the vehicle (solvent, H2O), corresponding to the highest concentration used when testing the compounds. Following treatment with the compounds, cells were further processed as follows. Following 48 h treatment, the levels of apoptosis were assessed using the “Human AnnexinV-FITC/PI apoptosis” kit (Bender MedSystems, Wien, Austria) as previously described. Briefly, cell pellets were resuspended in binding buffer and further incubated with Annexin V-FITC and with propidium iodide. Samples were analyzed in a FACSCalibur flow cytometer (BD Biosciences, Erembodegem, Belgium), plotting at least 15,000 events and using the FlowJo 7.6.5 software (Tree Star, Inc., Ashland, OR, USA).

NCI-H460 [3] = experiment: Cellular proliferation, BrdU incorporation assay; type: cell-based, human; conditions: 48 h
Method: NCI-H460 cells were plated in 6-well plates (1 × 10^5 cells/well) in RPMI-1640 medium with UltraGlutamine I and 25 mM Hepes (Lonza) supplemented with 10% FBS (PAA) at 37 °C in a humidified incubator with 5% CO2 for 24 h. […] These concentrations corresponded respectively to 5.2 μM and 7.8 μM for compound 5 and to 3.2 μM and 4.8 μM for compound 8. Cells were also incubated with medium only (Blank) or with the vehicle (solvent, H2O), corresponding to the highest concentration used when testing the compounds. Following treatment with the compounds, cells were further processed as follows. Following 47 h treatment, cells were further incubated with 10 μM bromodeoxyuridine (BrdU; Sigma) for 1 h. Cells were then trypsinized and fixed in 4% paraformaldehyde (in PBS) for 30 min. Cytopsins were prepared and a 20 min denaturation step was carried out by incubating slides in 2 M HCl. Following incubation with mouse anti-BrdU primary antibody (1/10, Dako) for 1 h at room temperature (RT), cells were further incubated with anti-mouse-Ig-FITC (1/100, Dako) for 30 min, at RT [21]. Slides were then mounted with Vectashield mounting medium with DAPI (Vector Laboratories). The percentage of BrdU incorporating cells was determined by counting a minimum of 500 cells per slide (except for one experiment in which due to technical difficulties less cells were counted when testing the compound 8) using a fluorescence microscope (DM2000; Leica, Wetzlar, Germany ).

[4] = test system: HSP90 client proteins in A431 cells; experiment: HSP90 client protein levels by Western blot; type: cell-based, human; conditions: 24 h
Text: as §1
(§3) Total cell lysates were prepared as described previously. Primary antibodies used in this study are: anti-Raf-1 and anti-CDK4 (Santa Cruz Biotechnology Inc., Santa Cruz, CA, USA), anti-Survivin (Abcam, Cambridge, UK), anti-Akt (Transduction Laboratories, Lexington, KY, USA), and anti-Actin Sigma Chemical Co., St. Louis, MO, USA).

[5] = test system: HSP90 client proteins in STO cells; experiment: HSP90 client protein levels by Western blot; type: cell-based, human; conditions: 24 h
Text: as §1, §3

## O=c1c2ccccc2oc2c[n+](Cc3ccccc3)ccc12.[Br-] [Compound 5, 2-Benzyl-10-oxo-10H-9-oxa-2-azonia-anthracene bromide]
A431
  IC50: 1360 ± 50 nM
STO
  IC50: 2700 ± 800 nM
[1]; 5.2 μM (GI50)
  viability at 48 h, 5.2 µM: 71%
[1]; 7.8 μM (1.5× GI50)
  viability at 48 h, 7.8 µM: 49%
NCI-H460 [2]; 5.2 μM, Blank 7.0 ± 0.6
  % Apoptosis: 7.2 ± 1.4%
NCI-H460 [2]; 7.8 μM, Blank 7.0 ± 0.6
  % Apoptosis: 7.3 ± 0.9%
NCI-H460 [2]
  Induction of apoptosis at cytotoxic concentrations: did not induce apoptosis
NCI-H460 [3]; 1.5× GI50 (7.8 μM), untreated cells 32%
  Percentage of BrdU-incorporating cells: 22%
NCI-H460 [3]; GI50 (5.2 μM), untreated cells 32%
  Percentage of BrdU-incorporating cells: 25%
[4]; 5.4 μM
  CDK4 protein level: almost complete downregulation
  Survivin protein level: partial downregulation
[5]; 2.7 μM
  CDK4 protein level: almost complete downregulation
  Survivin protein level: partial downregulation

## O=c1c2ccccc2sc2c[n+](Cc3ccccc3)ccc12.[Br-] [Compound 8, 2-Benzyl-5-oxo-5H-thiochromeno[2,3-c]pyridin-2-ium bromide]
A431
  IC50: 260 ± 400 nM
STO
  IC50: 260 ± 80 nM
[1]; 3.2 μM (GI50)
  viability at 48 h, 3.2 µM: 57%
[1]; 4.8 μM (1.5× GI50)
  viability at 48 h, 4.8 µM: 29%
NCI-H460 [2]; 3.2 μM, Blank 5.2 ± 0.9
  % Apoptosis: 6.7 ± 1.4%
NCI-H460 [2]; 4.8 μM, Blank 5.2 ± 0.9
  % Apoptosis: 12.5 ± 1.7 %
NCI-H460 [2]
  Induction of apoptosis at cytotoxic concentrations: induced apoptosis
NCI-H460 [3]; 1.5× GI50 (4.8 μM), untreated cells 31%
  Percentage of BrdU-incorporating cells: 21%
NCI-H460 [3]; GI50 (3.2 μM), untreated cells 31%
  Percentage of BrdU-incorporating cells: 26%
[4]; 2.6 μM
  Akt protein level: partial downregulation
  EGFR protein level: partial downregulation
  RAF protein level: strong downregulation
[4]; 2.6 μM, compared with STO cells
  Survivin protein level: less marked
[5]; 2.6 μM
  Survivin protein level: caused degradation
